Source: patent US10039779B2, “Combination formulation of two antiviral compounds” (priority 2013, dated 2018)

What was measured:
[1] = PK of Sofosbuvir/Ledipasvir tablets fasted or with meals; conditions: for AUC(0-inf) / AUC(0-t) / Cmax: plasma, po, plasma analyte, n = 29, mean (% CV); for AUC(0-inf): AUCinf; for AUC(0-t): AUClast
[2] = pH-solubility profile and solubility in simulated intestinal media; assay type: physicochemical
Description: Excess solid ledipasvir was added to a range of pH-adjusted aqueous solutions (titrated with HCl or NaOH) and stirred for 48 hours at room temperature. The suspensions were then filtered through regenerated cellulose syringe filters. The pH value of the supernatant was measured, and the supernatant was diluted as appropriate with 50:50 H2O+0.1% TFA:ACN and assayed for ledipasvir content by the HPLC-UV method.
Solubility of ledipasvir amorphous free base was assessed in three types of simulated intestinal fluids at pH 6.5 or pH 5.0; and simulated intestinal bile salt and lecithin mixture (SIBLM), pH 6.4. Excess solid ledipasvir was added to the respective SIFs and stirred for 48 hours at room temperature. The resulting suspensions were then filtered through regenerated cellulose syringe filters. The supernatant was diluted as appropriate with 50:50 H2O+0.1% TFA:ACN and assayed for ledipasvir content by the HPLC-UV method.

[3] = as above; assay type: physicochemical; remark: listed apart in the source
[4] = Compatibility/stability of sofosbuvir and ledipasvir:copovidone solid dispersion blend; assay type: physicochemical; conditions: for Strength / Total Impurity Content: blend pellets, open glass vials
Description: The compatibility of sofosbuvir anhydrous crystalline drug substance was evaluated with the ledipasvir:copovidone solid dispersion. A blend of the sofosbuvir and ledipasvir:copovidone (1:1) solid dispersion was prepared at a ratio representative of the final 400 mg sofosbuvir/90 mg ledipasvir tablets. […]

HCV = assay: Dose selection: antiviral response and Emax PK/PD modeling; assay type: in vivo, Hepatitis C virus; conditions: for breakthrough (BT) rate: in combination with other therapeutic agents
Description: The sofosbuvir dose selected for the tablet formulation is 400 mg once daily. Support for the 400 mg sofosbuvir dose can be derived from Emax PK/PD modeling with early virological and human exposure data which also supports the selection of a 400 mg sofosbuvir dose over others tested.
The mean sofosbuvir major metabolite AUCtau for the 400 mg sofosbuvir dose is associated with approximately 77% of the maximal HCV RNA change from baseline achievable as determined by this model, a value which is on the cusp of the plateau of the exposure-response sigmoidal curve. […] Therefore, given that sofosbuvir exposure with 200 mg tablets appears dose-proportional with single doses up to 1200 mg, doses below 400 mg are expected to yield considerable reductions in the magnitude of HCV RNA change from baseline.
The sofosbuvir dose of 400 mg once daily was associated with higher SVR rates in genotype 1 HCV infected patients as compared to the 200 mg once daily dose when given in conjunction with additional HCV therapeutics for 24 weeks. Safety and tolerability appeared similar across both dose levels. In addition, when sofosbuvir 400 mg once daily plus other HCV therapeutics were given to genotype 2 or 3 HCV infected patients, 100% SVR24 was observed.
The maximum median HCV RNA log 10 reduction was 3 or greater for all cohorts dosed with ≥3 mg of ledipasvir. […] Therefore, 30 mg and 90 mg of ledipasvir were selected as the dose for the formulations described herein.
Therefore, the 90 mg dose of ledipasvir may confer a greater antiviral coverage that prevents viral breakthrough.

[5] = Pharmacokinetics of sofosbuvir and ledipasvir alone or in combination; assay type: in vivo; parameters: AUC(0-inf): concentration or dose not given beside the values; conditions: for AUC(0-inf): plasma
[6] = Ledipasvir single-dose PK by concomitant food intake status; assay type: in vivo; conditions: for CL/F: Ledipasvir 30 mg single dose, N = 8, mean
[7] = Sofosbuvir/Ledipasvir Tablet, Fasted
[8] = Sofosbuvir/Ledipasvir Tablet, High-Calorie/High-Fat Meal
[9] = Sofosbuvir/Ledipasvir Tablet, Moderate-Fat Meal
[10] = nonlinear least-square regression fit of pH-solubility profile
[11] = Sofosbuvir + Ledipasvir vs single agent alone
[12] = po, plasma analyte, Ledipasvir alone, n = 17, mean (% CV)

COC(=O)N[C@H](C(=O)N1CC2(CC2)C[C@H]1c1ncc(-c2ccc3c(c2)C(F)(F)c2cc(-c4ccc5nc([C@@H]6[C@H]7CC[C@H](C7)N6C(=O)[C@@H](NC(=O)OC)C(C)C)[nH]c5c4)ccc2-3)[nH]1)C(C)C [Ledipasvir, (1-{3-[6-(9,9-difluoro-7-{2-[5-(2-methoxycarbonylamino-3-methyl-butyryl)-5-aza-spiro[2.4]hept-6-yl]-3H-imidazol-4-yl}-9H-fluoren-2-yl)-1H-benzoimidazol-2-yl]-2-aza-bicyclo[2.2.1]heptane-2-carbonyl}-2-methyl-propyl)-carbamic acid methyl ester]
% GMR (90% CI) [Moderate-Fat/Fasted] of AUCinf ([1]; Sofosbuvir/Ledipasvir Tablet): 115 (99.4, 134) %
% GMR (90% CI) [Moderate-Fat/Fasted] of AUClast ([1]; Sofosbuvir/Ledipasvir Tablet): 114 (98.0, 133) %
% GMR (90% CI) [Moderate-Fat/Fasted] of Cmax ([1]; Sofosbuvir/Ledipasvir Tablet): 109 (93.5, 126) %
GMR (90% CI) [High-Fat/Fasted] of AUCinf ([1]; Sofosbuvir/Ledipasvir Tablet): 103 (88.5, 119) %
GMR (90% CI) [High-Fat/Fasted] of AUClast ([1]; Sofosbuvir/Ledipasvir Tablet): 104 (88.8, 121) %
GMR (90% CI) [High-Fat/Fasted] of Cmax ([1]; Sofosbuvir/Ledipasvir Tablet): 88.2 (75.8, 103) %
AUC(0-inf) [1, 7]: 10600 ng·h/mL
AUC(0-inf) [1, 8]: 9220 ng·h/mL
AUC(0-inf) [1, 9]: 10600 ng·h/mL
AUC(0-t) [1, 7]: 8600 ng·h/mL
AUC(0-t) [1, 8]: 7550 ng·h/mL
AUC(0-t) [1, 9]: 8650 ng·h/mL
Cmax [1, 7]: 324 ng/mL
Cmax [1, 8]: 255 ng/mL
Cmax [1, 9]: 319 ng/mL
effect of food on pharmacokinetics ([1]; sofosbuvir/ledipasvir composition, fed vs fasted): does not appear to be altered by food
BCS classification [2]: BCS Class 2
pKa1 [2, 10]: 5.0
pKa2 [2, 10]: 4.0
permeability [3]: high permeability
degradation in blend with the other active ([4]; 40° C./75% RH and 60° C./ambient humidity, two and four weeks): no degradation was observed
Strength ([4]; 45° C./75% RH, 0 weeks): 98.8%
Total Impurity Content ([4]; 45° C./75% RH, 0 weeks): 0.0%
Strength ([4]; 45° C./75% RH, 2 weeks): 96.9%
Total Impurity Content ([4]; 45° C./75% RH, 2 weeks): 0.0%
Strength ([4]; 45° C./75% RH, 4 weeks): 97.1%
Total Impurity Content ([4]; 45° C./75% RH, 4 weeks): 0.0%
Strength ([4]; 60° C., 0 weeks): 98.8%
Total Impurity Content ([4]; 60° C., 0 weeks): 0.0%
Strength ([4]; 60° C., 1 week): 99.2%
Total Impurity Content ([4]; 60° C., 1 week): 0.0%
Strength ([4]; 60° C., 2 weeks): 99.6%
Total Impurity Content ([4]; 60° C., 2 weeks): 0.0%
Strength ([4]; 60° C., 4 weeks): 98.9%
Total Impurity Content ([4]; 60° C., 4 weeks): 0.0%
share of maximal antiviral response (Emax PK/PD model) (HCV; 30 mg dose, genotype 1a HCV infected patients): > 95%
breakthrough (BT) rate (HCV; 30 mg, 11/33): 33%
breakthrough (BT) rate (HCV; 90 mg, 9/74): 12%
% GMR (90% CI) of AUCinf [5, 11]: 95.7 (92.1, 99.5) %
% GMR (90% CI) of AUClast [5, 11]: 96.5 (89.9, 104) %
% GMR (90% CI) of Cmax [5, 11]: 95.5 (91.9, 99.1) %
AUC(0-inf) [5, 12]: 11900 ng·h/mL
AUC(0-inf) ([5]; po, plasma analyte, Sofosbuvir + Ledipasvir, n = 17, mean (% CV)): 11400 ng·h/mL
Cmax [5, 12]: 375 ng/mL
AUCinf GLSM Ratio (Fed/Fasted) ([6]; Ledipasvir 30 mg): 55.55%
AUClast GLSM Ratio (Fed/Fasted) ([6]; Ledipasvir 30 mg): 56.71%
Cmax GLSM Ratio (Fed/Fasted) ([6]; Ledipasvir 30 mg): 54.90%
CL/F ([6]; fasted): 17,034.5 mL/h
CL/F ([6]; fed (high-fat meal)): 26,917.9 mL/h
decrease each in mean Cmax, AUClast, and AUCinf ([6]; high-fat meal vs fasted, 30 mg): approximately 45%
decrease in exposure with a high-fat meal relative to fasted state ([6]; ledipasvir alone in a conventional formulation): roughly 2 fold
